Format in all cases: cell-based, human
In assay [1] the test system is H441 cells. Briefly: MitoSOX Red mitochondrial superoxide imaging / flow cytometry. The following applies: 0-20 μM, 12-48 h. The procedure:
MitoSOX Red mitochondrial superoxide imaging: Cells were grown to 70% confluency in 24-well tissue culture plates and treated with CLEFMA (0-20 μM) for 12-48 h; treatment with hydrogen peroxide (H2O2, 10 μM) served as a positive control. At the end of the incubation period, both the non-adherent and adherent cells were incubated with 5 μM MitoSOX Red solution (Invitrogen, Carlsbad, Calif.) for 30 min at 37° C. For flow cytometric analysis, the MitoSOX-loaded cells were trypsinized and collected in HBSS (with Ca/Mg) containing 1% BSA and suspended at a density of 1−2×10^7 cells/ml. Approximately 5-10 million cells were aliquoted into a binding buffer and run through an automated dual-laser-excited FACS Calibur (Flow and Imaging Core Facility, OUHSC, Oklahoma City) measuring at 488 nm excitation wavelength. The data were collected at the FSC, FL2 and FL3 channels for at least 10,000 events, and the histogram and dot-plot charts were obtained and analyzed using Summit V4.3 software (Dako Colorado Inc, Carpinteria, Calif.). For microscopy, the MitoSOX-loaded cells were counterstained with 1 μg/ml Hoechst 33342 dye (Molecular Probes, Carlsbad, Calif.). […]

Assay [2] concerns H441 cells. Briefly: GSH/GSSG assay in H441 cells. To be noted: 12 and 24 h. The protocol:
Glutathione-to-glutathione disulfide (GSH/GSSG) assay: In order to assess the effect of CLEFMA on cellular GSH levels, a kit from Oxford Biomedical Research (Oxford, Mich.) was used and followed a modification of the method reported elsewhere (NCL Method GTA-3, Nanotechnology Characterization Lab, Frederick, Md.). H441 were seeded in a 12-well plate (1 million cells/well) and treated with CLEFMA for 12 and 24 h. The medium was removed and the cell layer was washed twice with ice-cold PBS. After adding 100 μl of ice-cold 5% m-phosphoric acid, the cells were scraped into a microfuge tube and centrifuged at 1000×g at 4° C. for 10 min. The supernatant was removed to a fresh tube for the GSSG and GSH assays. For the GSSG determination, approximately 30 μl supernatant was mixed with 20 μl thiol scavenger and 130 μl ice-cold assay buffer, and for the GSH assay, approximately 5 μl of the supernatant was diluted in 180 μl with ice-cold assay buffer. […] The plate was read in a microplate reader at 405-414 nm at 0 and 10 min after DTNB was added. The GSH and GSSG concentrations were determined following a linear regression analysis and normalized to total protein. The ratio (GSH−2GSSG)/GSSG was calculated and expressed as the percent of untreated control cells.

Assay [3] has as its system H441 cells. Description: Illumina microarray gene expression analysis of H441 cells. The following applies: H441, 1 μM, 12 hours. The procedure: RNA Extraction and microarray sample processing: H441 cells were seeded in […] tissue culture plates at a density of 1×10^6 cells per well. The cells were allowed to attach and grow overnight and then treated with CLEFMA (n=5) at 1 μM in culture medium supplemented with 5% FBS. The DMSO concentration was maintained at 0.1% per well. Control wells (n=5) received equivalent volumes of DMSO without any test compound. The cells were kept in the treatment medium for 12 hours, after which the cells were washed twice with ice-cold Dulbecco's phosphate buffered saline (PBS). The total RNA was extracted using the RNAeasy kit (Qiagen, CA) as per the manufacturer's instructions. The quality of RNA was ascertained by the Nanodrop 2000 spectrophotometer (NanoDrop products, Wilmington, Del.).
The expression of >48,000 genes were compared using Illumina Human WG-6 v3 arrays. Hybridization to Illumina microarrays was performed at the Oklahoma Medical Research Foundation (Oklahoma City, USA). RNA (250 ng) from each sample was labeled using the Illumina Total Prep RNA Amplification Kit following the manufacturer's directions (Ambion, Austin, Tex.). Briefly, cDNA was reverse transcribed from RNA after priming with T7-oligo-dT, and cRNA was synthesized from the T7 promoter while incorporating biotinylated UTP. The cRNA was then hybridized overnight to Illumina BeadChips, and the microarray chips were washed with high stringency and labeled with streptavidin-Cy3 (Amersham Biosciences; Piscataway, N.J.) prior to scanning on an Illumina BeadArray Reader.
Microarray Data Analysis: The Illumina WG-6_v3 array data for each experimental condition were exported from the BeadStudio Software for further analysis. The data were normalized as described previously [Dozmorov et al., 2004; Dozmorov et al., 2009] using the variability of low-expressing genes as a reference point. In order to find genes expressed above the level of technical noise, a frequency histogram of raw expression values was examined for each array. The histogram yielded a right-skewed unimodal distribution curve with a mode of approximately 75. A normal distribution curve representing the variability of the data around zero was then fitted around the mode, mirroring the Gaussian profile of the left part of the histogram. Its parameters were then defined (mean and standard deviation (SD)) and the data were normalized to the standard deviation of the noise after subtraction of the mean. […] The data were then filtered to remove genes with an expression value less than 3.0. This is equivalent to setting a threshold at 3 SD above the noise level. The genes that expressed below the noise level under all experimental conditions (approximately 1,600) were excluded from consideration, as their expression could not be reliably assessed. Full microarray data were deposited in the Gene Expression Omnibus (GEO, GSE23420) and are accessible on the GEO web site.
To identify differentially expressed genes between two experimental groups, the associative analysis as described elsewhere [Dozmorov et al., 2009] was used. Briefly, a reference group of genes expressed above background with low variability of expression in pooled microarray datasets was identified by an F-test. […] For the genes with statistically significant variability above the random, the variations were assumed to have biological reasons. An associative t-test was applied to investigate if a given gene belongs to a certain group. […]

For assay [4], the system named is H441 cells. Description: Monodansylcadaverine fluorescence microscopy of autophagosomes in H441 cells. The protocol: Monodansylcadaverine (MDC) is an autofluorescent marker for autophagic vacuoles. [Biederbick et al., 1995] It was found the emergence of intense MDC-fluorescence in the treated cells. The fluorescence vanished when the cells were treated with 3-methyl adenine (3-MA). […] [Seglen et al., 1982]

The results in this text go back to patent US9359196B2, “Antiproliferative compositions comprising curcumin analogs and methods of producing and using same” (The Board of Regents of the University of Oklahoma, priority 2009, dated 2016).

On to `O=C(O)C=CC(=O)N1CC(=Cc2ccccc2Cl)C(=O)C(=Cc2ccccc2Cl)C1` [Compound 29, 4-[3,5-Bis-(2-chlorobenzylidene)-4-oxo-piperidin-1-yl]-4-oxo-2-butenoic acid], for which, in the assay on H441 cells [1], the “mitochondrial ROS production (MitoSOX)” value is “time- and dose dependent increase in mitochondrial ROS production”. Further, the GSH/GSSG ratio result in the assay on H441 cells [2] is on record as “strong dose-dependent reduction of the GSH/GSSG ratio”. Moreover, in the assay with H441 cells [3], the GAPDH expression increase turned out to be 1.3 fold, the HMOX1 expression increase turned out to be 5.3 fold, the SOD1 expression increase came out at 1.3 fold and the SULTA1 expression increase is reported as 3.8 fold. Moreover, the SULTA2 expression increase with H441 cells [3] worked out at 8.5 fold. Further, the “autophagosome formation (MDC fluorescence)” value in the assay with H441 cells [4] is on record as “appearance of intracellular vacuoles or autophagosomes”.
